Eight compounds from patent US10005756B2, “Pyrrolidinone derivatives as MetAP-2 inhibitors” (Merck Patent GmbH, priority 2014, dated 2018) can be followed below.

A word on the IC50: it is the concentration that inhibits the measured activity by half.

The assay concerns human umbilical vein endothelial cells (HUVEC). Description: HUVEC proliferation quantified by BrdU incorporation. It counts as cell-based. The following applies: HUVEC, read-out: IC50 HUVEC. As for the experimental part: Determination of the Proliferation Inhibition by Inhibitors of Methionine Aminopeptidase 2 in the BrdU Proliferation Test (Cellular Assay)
After detachment of the cells by means of trypsin/EDTA, the number of living cells is determined, and the cells are sown in a density of 1000 cells per cavity in a total volume of 175 μl (cavities are coated in advance either with supplemented culture medium for 1-2 hours at 37° C. or with 1.5% gelatine for 0.5-2 hours at 37° C.). After cultivation for 24 hours, the test substances are added in various concentrations (for example final concentrations 30 μM to 0.03 nM in 10-fold dilution steps) and a volume of 25 μl. The DMSO concentration is kept constant at 0.3%. […] To this end, the cells are treated with a fixative for 30 min at room temperature and subsequently incubated with a peroxidase-labelled anti-BrdU antibody (diluted 1:100 in antibody dilution buffer) for 60 min at room temperature. […] The colour development is stopped after 15 min by addition of 25 μl of a 1M sulfuric acid solution. […] The controls used are cavities containing DMSO-treated cells (100% control) or empty cavities (blank value).
HUVEC Proliferation Quantified by BrdU Incorporation
HUVEC Means Human Umbilical Vein Endothelial Cells
HUVEC proliferation is measured after a 5 day incubation period using incorporation of BrdU as a measure of cell cycle activity. Cells are incubated in the presence or absence of test substances. During the last 18 to 24 hours of the incubation period BrdU is added to the medium. BrdU is incorporated into the DNA as the cells progress through S-phase (DNA synthesis) of the cell cycle. The cells are fixed and the amount of BrdU incorporated can be quantified using a commercial ELISA for detection of BrdU.
HUVEC are routinely cultured in EGM MV medium and used between passages 3 and 8.
All substances are run in triplicate.
Reference compounds are run in every assay.
Data is analyzed using the Assay Explorer program. Briefly, the blank is subtracted from all values, the triplicates are averaged and normalized to the untreated. EC50 is determined from a 4-parameter general sigmoidal curve (Hill fit y=(s0−slnf)/(1+(x/AC50)^nHill)+slnf) in Assay Explorer, Symyx). The processed data (EC50 or % Effect if no EC50 if reached, Efficacy) is uploaded directly from Assay Explorer to the MSRDB.
(In general: Uptake of a labelled nucleoside into DNA is a usual measure of proliferation.)
Regarding `O=C(NCc1cc(F)cc(Cl)c1)C1(O)CCN(c2ccc(C(O)(C(F)(F)F)C(F)(F)F)cc2)C1=O` (centres unmarked) [Compound A29], the IC50 is 1500 nM.

`O=C(NCc1cc(F)cc(Cl)c1)C1(O)CCN(c2ccn[nH]2)C1=O` (centres unmarked) [Compound A15]: the concentration for half-maximal inhibition (IC50) came to 5200 nM.

`Cc1nc(-c2cc3cc(N4CC[C@](O)(C(=O)NCc5cc(F)cc(Cl)c5)C4=O)ccc3[nH]2)no1` [Compound A11]: the IC50 was 24 nM.

For `O=C(NCc1cc(F)cc(Cl)c1)[C@@]1(O)CCN(c2ccc(OC(F)(F)F)cc2)C1=O` [Compound A65], the IC50 worked out at 1500 nM.

In the case of `Nc1ccc(N2CCC(O)(C(=O)NCc3cc(F)cc(Cl)c3)C2=O)cc1/C=C/C(=O)O` (centres unmarked) [Compound A19], the IC50 was found to be 180 nM.

Regarding `O=C(NCc1cc(F)cc(Cl)c1)C1(O)C(=O)N(c2ccccc2)CC1O` (centres unmarked) [Compound A13], the IC50 was 2500 nM.

In the case of `NCCCNC(=O)c1cc2cc(N3CC[C@](O)(C(=O)NCc4cc(F)cc(Cl)c4)C3=O)ccc2[nH]1` [Compound A40], the IC50 was found to be 200 nM.

In the case of `C[C@@H](c1ccccc1)N1CC[C@](O)(C(=O)NCc2cc(F)cc(Cl)c2)C1=O` [Compound A3], the IC50 is 730 nM.
